Results on 38 molecules are retold here after publication PMC7619385 (ACS infectious diseases, 2025).

In general, ΔTm refers to the change in melting temperature against a reference sample.

The assay concerns the target T1, LmxCLK1 (Leishmania mexicana, UniProt E9AMP2).
T1 sequence (E9AMP2 1-422): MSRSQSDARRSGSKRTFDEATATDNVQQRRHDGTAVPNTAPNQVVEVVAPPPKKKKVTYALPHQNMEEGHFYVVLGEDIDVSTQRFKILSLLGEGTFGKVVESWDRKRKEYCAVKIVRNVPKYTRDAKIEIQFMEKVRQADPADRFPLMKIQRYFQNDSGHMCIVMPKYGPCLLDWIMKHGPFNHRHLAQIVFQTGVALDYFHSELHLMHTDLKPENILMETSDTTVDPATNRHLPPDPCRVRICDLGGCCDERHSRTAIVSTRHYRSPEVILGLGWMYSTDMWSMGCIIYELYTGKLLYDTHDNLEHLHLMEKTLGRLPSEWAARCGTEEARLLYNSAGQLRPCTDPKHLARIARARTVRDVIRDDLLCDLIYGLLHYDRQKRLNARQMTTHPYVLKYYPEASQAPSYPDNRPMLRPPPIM
The experiment in a line: biochemical. It is filed as binding.

Where [1] appears, read: DSF, 10 µM compound, 2 µM LmxCLK1, Run 1.
Where [2] appears, read: DSF, 10 µM compound, 2 µM LmxCLK1, Run 2.
The mark [3] stands for this setting: DSF, 10 µM compound, 2 µM LmxCLK1, mean of two runs.
[4] abbreviates: DSF, 10 µM compound, 2 µM LmxCLK1, Run 1, read-out: ΔTm Run 1.
The mark [5] stands for this setting: DSF, 10 µM compound, 2 µM LmxCLK1, Run 2, read-out: ΔTm Run 2.
Where [6] appears, read: DSF, 10 µM compound, 2 µM LmxCLK1, mean of two runs, read-out: ΔTm Average.

Like-named read-outs stand apart in the source and are kept apart here.

As to `COc1cc2c(N3CCN(C(=O)Nc4ccc(OC(C)C)cc4)CC3)ncnc2cc1OCCCN1CCCCC1` [Tandutinib (MLN518)], under setting [1], the “ΔTm Run 1” value came to 0.1 °C. Besides, the “ΔTm Run 2” value under setting [2] is -0.1 °C. Under setting [3], the “ΔTm Average” value worked out at 0.0 °C.

For `CNC(=O)c1cc(COc2nnc(Nc3ccc(Cl)cc3)c3ccoc23)ccn1` [Telatinib], the ΔTm at 10 µM reads like this: under setting [4], -0.3 °C; under setting [5], -0.5 °C; under setting [6], -0.4 °C.

Consider `CO[C@H]1C[C@@H]2CC[C@@H](C)[C@@](O)(O2)C(=O)C(=O)N2CCCC[C@H]2C(=O)O[C@H]([C@H](C)C[C@@H]2CC[C@@H](OC(=O)C(C)(CO)CO)[C@H](OC)C2)CC(=O)[C@H](C)/C=C(\C)[C@@H](O)[C@@H](OC)C(=O)[C@H](C)C[C@H](C)/C=C/C=C/C=C/1C` [Temsirolimus (CCI-779)], for which the “ΔTm Run 1” value under setting [1] is -0.1 °C. Under setting [2], the “ΔTm Run 2” value is -0.3 °C. Moreover, the “ΔTm Average” value under setting [3] was -0.2 °C.

As for `COc1ccc2cc(-c3nc(-c4ccc([S+](C)[O-])cc4)[nH]c3-c3ccncc3)ccc2c1` (centres unmarked) [Tie2 kinase inhibitor], the ΔTm Average turned out to be 0.1 °C, the ΔTm Run 1 was determined as 0.1 °C and the ΔTm Run 2 came to 0 °C.

As for `COc1cc2nccc(Oc3ccc(NC(=O)Nc4cc(C)on4)c(Cl)c3)c2cc1OC` [Tivozanib (AV-951)], the thermal shift (ΔTm) at 10 µM is 0.2 °C under setting [4], 0 °C under setting [5] and 0.1 °C under setting [6].

On to `Nc1ccc(-c2ccc3ncc4ccc(=O)n(-c5cccc(C(F)(F)F)c5)c4c3c2)cn1` [Torin 2], for which the “ΔTm Run 1” value under setting [1] was -0.1 °C. The “ΔTm Run 2” value under setting [2] is 0.0 °C. In addition, under setting [3], the “ΔTm Average” value amounted to 0.0 °C.

Consider `CC(=O)Nc1cccc(-n2c(=O)n(C3CC3)c(=O)c3c(Nc4ccc(I)cc4F)n(C)c(=O)c(C)c32)c1` [Trametinib (GSK1120212)], for which the ΔTm at 10 µM reads like this: under setting [4], 0 °C; under setting [5], -0.5 °C; under setting [6], -0.2 °C.

In the case of `CC(C)(C)c1cc(C=C(C#N)C#N)cc(C(C)(C)C)c1O` [Tyrphostin 9], the “ΔTm Run 1” value under setting [1] is -0.3 °C. In addition, the “ΔTm Run 2” value under setting [2] was -0.3 °C. The “ΔTm Average” value under setting [3] was -0.3 °C.

With `CC(C)(C)c1cc(/C=C(\C#N)C(N)=S)cc(C(C)(C)C)c1O` [Tyrphostin AG 879], the ΔTm at 10 µM by setting is: under setting [4], -0.1 °C; under setting [5], -0.2 °C; under setting [6], -0.2 °C.

As for `COc1cc2ncc(-c3ccccc3)nc2cc1OC` [Tyrphostin AG 1296], the “ΔTm Run 1” value under setting [1] turned out to be 0.3 °C. Further, the “ΔTm Run 2” value under setting [2] was 0.1 °C. Further, the “ΔTm Average” value under setting [3] turned out to be 0.2 °C.

Regarding `CCO.N#CC(=C(/N)Sc1ccccc1N)/C(C#N)=C(\N)Sc1ccccc1N` [U0126-EtOH], the “ΔTm Average” value is recorded as -0.1, the “ΔTm Run 1” value is -0.4 and the ΔTm Run 2 stood at 0.1 °C.

For `CNCc1ccc(-c2cc(-c3nc(-c4ccc(S(=O)(=O)C(C)C)cc4)cnc3N)on2)cc1` [VE-822], the ΔTm at 10 µM is, setting by setting: under setting [4], 0.6 °C; under setting [5], 0.1 °C; under setting [6], 0.4 °C.

For `Cc1cc(Nc2cc(N3CCN(C)CC3)nc(Sc3ccc(NC(=O)C4CC4)cc3)n2)n[nH]1` [VX-680 (Tozasertib)], the “ΔTm Run 1” value under setting [1] is -0.3 °C. The “ΔTm Run 2” value under setting [2] is -0.4 °C. Besides, under setting [3], the “ΔTm Average” value is -0.3 °C.

Take `NC(=O)c1ccc(N(C(N)=O)c2c(F)cccc2F)nc1-c1ccc(F)cc1F` [VX-702]: the ΔTm at 10 µM under setting [4] is 0.3 °C, the ΔTm at 10 µM under setting [5] was -0.2 °C and the ΔTm at 10 µM under setting [6] is 0 °C.

Take `O=c1ncn2nc(Sc3ccc(F)cc3F)ccc2c1-c1c(Cl)cccc1Cl` [VX-745]: the ΔTm at 10 µM was found to be 0.4 °C under setting [4], 0.2 °C under setting [5] and 0.3 °C under setting [6].

Take `COc1cc2/c(=N/c3ccc(Br)cc3F)nc[nH]c2cc1OCC1CCN(C)CC1` [Vandetanib (ZD6474)]: the “ΔTm Run 1” value under setting [1] is 0.0 °C. Also, under setting [2], the “ΔTm Run 2” value was -0.1 °C. Besides, under setting [3], the “ΔTm Average” value is -0.1 °C.

Regarding `Cl.Cl.Clc1ccc(Nc2nnc(Cc3ccncc3)c3ccccc23)cc1` [Vatalanib (PTK787) 2HCl], the “ΔTm Run 1” value under setting [1] was -0.2 °C. In addition, the “ΔTm Run 2” value under setting [2] came out at 0.0 °C. In addition, the “ΔTm Average” value under setting [3] is -0.1 °C.

For the molecule `CCCS(=O)(=O)Nc1ccc(F)c(C(=O)c2c[nH]c3ncc(-c4ccc(Cl)cc4)cc23)c1F` [Vemurafenib (PLX4032)], under setting [1], the “ΔTm Run 1” value was -0.1 °C. Besides, under setting [2], the “ΔTm Run 2” value was -0.1 °C. Moreover, the “ΔTm Average” value under setting [3] is -0.1 °C.

Take `CC[C@@H]1C(=O)N(C)c2cnc(Nc3ccc(C(=O)N[C@H]4CC[C@H](N5CCN(CC6CC6)CC5)CC4)cc3OC)nc2N1C(C)C` [Volasertib (BI 6727)]: the “ΔTm Run 1” value under setting [1] was determined as 0.3 °C. Under setting [2], the “ΔTm Run 2” value came to 0.0 °C. Also, the “ΔTm Average” value under setting [3] came out at 0.2 °C.

In the case of `COc1ccc(N(C(=O)Oc2c(C)cccc2C)c2ccnc(Nc3ccc(N4CCN(C)CC4)cc3)n2)c(OC)c1` [WH-4-023], the “ΔTm Average” value is given as -0.3, the “ΔTm Run 1” value was -0.4 and the “ΔTm Run 2” value is on record as -0.2.

For `COC(=O)Nc1ccc(-c2nc(N3CCOCC3)c3cnn(C4CCN(C(=O)OC)CC4)c3n2)cc1` [WYE-354], under setting [1], the “ΔTm Run 1” value is -0.1 °C. The “ΔTm Run 2” value under setting [2] is -0.2 °C. Further, the “ΔTm Average” value under setting [3] is -0.1 °C.

On to `CNC(=O)Nc1ccc(-c2nc(N3CC4CCC(C3)O4)c3cnn(C4CCC5(CC4)OCCO5)c3n2)cc1` [WYE-125132 (WYE-132)], for which the “ΔTm Run 1” value under setting [1] was determined as 0.2 °C. The “ΔTm Run 2” value under setting [2] is -0.1 °C. The “ΔTm Average” value under setting [3] was 0.0 °C.

On to `C=CC(=O)Nc1cccc(Oc2nc(Nc3ccc(N4CCN(C)CC4)cc3OC)ncc2Cl)c1` [WZ4002], for which the ΔTm at 10 µM runs as follows: under setting [4], -0.1 °C; under setting [5], -0.3 °C; under setting [6], -0.2 °C.

Turning to `CCC(=O)Nc1cccc(Oc2nc(Nc3ccc(N4CCN(C)CC4)cc3OC)ncc2Cl)c1` [WZ4003], the thermal shift (ΔTm) at 10 µM was 0.1 °C under setting [4], -0.1 °C under setting [5] and 0 °C under setting [6].

Take `O=C(Nc1ccc(-c2ccnc(Nc3ccc(N4CCOCC4)cc3)n2)cc1)C1CCCN1` (centres unmarked) [XL019]: the ΔTm at 10 µM was 0.6 °C under setting [4], 0.4 °C under setting [5] and 0.5 °C under setting [6].

On to `CCOc1cc(N2CCC(O)CC2)ccc1Nc1ncc2c(n1)N(C)c1ccccc1C(=O)N2C` [XMD8-92], for which the “ΔTm Average” value is -0.3, the “ΔTm Run 1” value is -0.2 and the “ΔTm Run 2” value is listed as -0.5.

`C[C@@H](N)[C@H]1CC[C@H](C(=O)Nc2ccncc2)CC1.Cl.Cl` [Y-27632 2HCl]: under setting [1], the “ΔTm Run 1” value turned out to be 0.1 °C. For the same molecule, under setting [2], the “ΔTm Run 2” value came to 0.1 °C. The “ΔTm Average” value under setting [3] came out at 0.1 °C.

In the case of `Nc1ccc(C(=O)Nc2cccc(-c3nc(N4CCOCC4)c4oc5ncccc5c4n3)c2)cn1` [YM201636], the ΔTm Run 1 was found to be 0.4 °C and the ΔTm Run 2 was determined as 0 °C.

With `Cc1cc(C)nc(NS(=O)(=O)c2ccc(NC(=S)NC(=O)COc3ccc(Br)cc3Cl)cc2)n1` [ZCL278], the “ΔTm Run 1” value under setting [1] was 0.1 °C. Further, the “ΔTm Run 2” value under setting [2] is -0.1 °C. The “ΔTm Average” value under setting [3] stood at 0.0 °C.

Regarding `COc1cc2ncnc(Nc3ccc(Cl)cc3F)c2cc1OC` [ZM 306416], the “ΔTm Run 1” value under setting [1] turned out to be 0.2 °C. Besides, the “ΔTm Run 2” value under setting [2] amounted to 0.0 °C. For the same molecule, the “ΔTm Average” value under setting [3] was found to be 0.1 °C.

As to `Cc1cc(F)c(Nc2ncnc3cc(OCc4ccccc4)ccc23)cc1O.Cl` [ZM 323881 HCl], under setting [1], the “ΔTm Run 1” value came to 0.1 °C. Besides, the “ΔTm Run 2” value under setting [2] turned out to be 0.0 °C. Further, the “ΔTm Average” value under setting [3] stood at 0.0 °C.

Regarding `COc1cc2c(Nc3ccc(NC(=O)c4ccccc4)cc3)ncnc2cc1OCCCN1CCOCC1` [ZM 447439], the “ΔTm Run 1” value under setting [1] came to 0.0 °C. In addition, under setting [2], the “ΔTm Run 2” value is -0.2 °C. For the same molecule, under setting [3], the “ΔTm Average” value is -0.1 °C.

`FC(F)c1nc2ccccc2n1-c1nc(N2CCOCC2)nc(N2CCOCC2)n1` [ZSTK474]: the shift in melting temperature (ΔTm) at 10 µM came out at 0 °C under setting [4], 0 °C under setting [5] and 0 °C under setting [6].

Take `CO[C@H]1C[C@@H]2CC[C@@H](C)[C@@](O)(O2)C(=O)C(=O)N2CCCC[C@H]2C(=O)O[C@H]([C@H](C)C[C@@H]2CC[C@H](n3cnnn3)[C@H](OC)C2)CC(=O)[C@H](C)/C=C(\C)[C@@H](O)[C@@H](OC)C(=O)[C@H](C)C[C@H](C)/C=C/C=C/C=C/1C` [Zotarolimus(ABT-578)]: under setting [1], the “ΔTm Run 1” value was 0.2 °C. In addition, under setting [2], the “ΔTm Run 2” value is 0.0 °C. Moreover, under setting [3], the “ΔTm Average” value came out at 0.1 °C.

In the case of CA75 (GAK), the “ΔTm Average” value was -0.1, the “ΔTm Run 1” value is reported as -0.2 and the ΔTm Run 2 came out at 0 °C.

With HER2-Inhibitor-1, the “ΔTm Run 1” value under setting [1] turned out to be 0.2 °C. For the same molecule, the “ΔTm Run 2” value under setting [2] was -0.1 °C. In addition, the “ΔTm Average” value under setting [3] was 0.1 °C.

Take PHT-427: the “ΔTm Run 1” value under setting [1] came out at 0.4 °C. Besides, the “ΔTm Run 2” value under setting [2] turned out to be 0.3 °C. For the same molecule, the “ΔTm Average” value under setting [3] is 0.3 °C.

Consider S-Ruxolitinib (INCB018424), for which, under setting [1], the “ΔTm Run 1” value was found to be 0.6 °C. In addition, under setting [2], the “ΔTm Run 2” value was 0.6 °C. Besides, the “ΔTm Average” value under setting [3] is 0.6 °C.
